Test results published in article PMC3421993 (Journal of Experimental Botany, 2012).

Target: T1, HRP (horseradish peroxidase) (Armoracia rusticana, UniProt P00433)
T1 sequence (P00433 31-338): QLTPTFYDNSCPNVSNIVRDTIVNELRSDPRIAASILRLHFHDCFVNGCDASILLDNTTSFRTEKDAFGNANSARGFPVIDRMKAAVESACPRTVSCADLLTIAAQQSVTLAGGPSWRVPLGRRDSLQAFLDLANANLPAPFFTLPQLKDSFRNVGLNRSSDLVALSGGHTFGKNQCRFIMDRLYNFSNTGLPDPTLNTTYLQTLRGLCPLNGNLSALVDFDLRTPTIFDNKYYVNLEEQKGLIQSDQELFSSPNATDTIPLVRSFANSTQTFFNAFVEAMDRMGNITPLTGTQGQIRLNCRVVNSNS
Experiment: spectrophotometric peroxidase assay, […] nm
Type: biochemical
Details: read-out: K m (mM) / Pyrogallol; 3.3 mM H2O2; 100 mM Na-phosphate pH 6.5

Oc1cccc(O)c1O [pyrogallol] was tested, and the Km was 1.1 ± 0.1 mM.
